Data on 15 molecules can be found in PubChem BioAssay (NCI).

Assay in all cases: growth of human tumour cells (NCI), 48 h
For test [1], the system named is A498 renal.
In test [2] the test system is HOP-92 NSCLC.
Test [3] has as its system OVCAR-3 ovarian.
Test [4] deals with M14 melanoma.
For test [5], the system named is UO-31 renal.
The subject of test [6] is HOP-62 NSCLC.
For test [7], the system named is PC-3 prostate.
For test [8], the system named is MDA-N.
The test system of test [9] is MALME-3M melanoma.
Test [10] has as its system K-562 leukemia.
Test [11] has as its system 786-0 renal.
The subject of test [12] is OVCAR-5 ovarian.
Test [13] has as its system MDA-MB-231 breast.
Test [14] relates to SF-539 CNS.
Test [15] concerns OVCAR-8 ovarian.
Test [16] concerns T-47D breast.
Test [17] has as its system NCI-H522 lung.
Test [18] deals with MOLT-4 leukemia.
In test [19] the test system is SN12C renal.

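Interpolation was linear, between the two tested concentrations surrounding the appropriate level; five concentrations were tested over 48 hours in 96-well plates. TGI is the concentration that stops growth completely.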

As to `CC(=O)OCC1OC(N2C(c3ccccc3)=CC(c3ccco3)C(C#N)=C2S)C(OC(C)=O)C(OC(C)=O)C1OC(C)=O` (stereo unspecified), the TGI in test [1] was above 63.3 µM; in test [2] it was 26.9 µM; in test [3], 18.3 µM; in test [4], 16.9 µM; in test [5] it was 29.5 µM; in [6], 19.5 µM. Further, the TGI was above 38.6 µM in [7]; above 53.9 µM in test [8]; 13.6 µM in [9]; above 100 µM in test [10]; 5.93 µM in test [11]; 22 µM in test [12]. Besides, the TGI in test [13] was 8.65 µM; in [14], 5.35 µM; in [15] it was 12.1 µM; in test [16], above 67.9 µM; in test [17], above 39.8 µM; in test [18], above 75.4 µM. This molecule had a TGI in test [19] of 26.2 µM.
Turning to `C/C=C/C=C\C=C/C(O)C(C)C(CCC(C)C1OC(=O)C=CC1C)OP(=O)(O)O` (stereo unspecified), the TGI worked out at 0.404 µM in test [1]; 0.881 µM in test [2]; 0.393 µM in test [3]; 0.685 µM in test [4]; 0.93 µM in [5]; 0.786 µM in [6]. For the same molecule, the TGI in test [7] is 0.549 µM; in test [8] it was 1.32 µM; in test [9] it was 0.641 µM; in test [10] it was 0.905 µM; in [11], 1.51 µM; in [12] it was 0.574 µM. The TGI in [13] is above 71.1 µM; in [14] it was 1.7 µM; in test [15] it was 1.26 µM; in test [16] it was 1.46 µM; in test [17] it was 2.89 µM; in [18] it was 0.613 µM. The TGI in test [19] stood at 1.11 µM.
Turning to `O=C1OC(C2Cc3ccc4c(c3C2=O)CCC4)c2ccccc21` (stereo unspecified), the TGI in test [1], in [2], in [3], in test [4], in [5] and in [6] was above 100 µM in each case. In addition, the TGI in test [7], in test [8], in test [9], in [10], in [11] and in [12] was above 100 µM each time. Moreover, the TGI in test [13], in test [14], in test [15], in [16], in [17] and in test [18] was above 100 µM throughout. Also, the TGI in [19] was above 100 µM.
Consider `N/N=C(\c1nc2ccc([N+](=O)[O-])cc2[nH]c1=O)C(O)c1ccc(Cl)c(Cl)c1` (stereo unspecified), for which the TGI in test [1], in [2], in [3], in test [4], in [5] and in [6] was above 100 µM each time. Moreover, the TGI in [7], in [8], in test [9], in test [10], in test [11] and in test [12] was above 100 µM in each case. Further, the TGI in [13], in test [14], in test [15], in test [16], in [17] and in test [18] was above 100 µM each time. Moreover, the TGI in test [19] is above 100 µM.
Consider `CC(=O)NCCCCN(CCCNC(C)=O)C(=O)CNS(=O)(=O)c1cccc2c(N(C)C)cccc12`, for which the TGI in test [1], in test [2], in test [3], in test [4], in test [5] and in test [6] was above 100 µM each time. Moreover, the TGI in test [7], in test [8], in [9], in test [10], in test [11] and in [12] was above 100 µM in each case. The TGI in test [13], in test [14], in test [16], in test [17], in test [18] and in test [19] was above 100 µM throughout.
For `COc1ccc2c(c1)-c1c(c3cc(OC)ccc3n1CCCN(C)C)CC2`, the TGI in [1] is 31.3 µM; in [2] it was 33.8 µM; in [3] it was 29.6 µM; in test [4], 4.8 µM; in [5] it was 26.7 µM; in test [6], 29.2 µM. Further, the TGI is 25.3 µM in [7]; 16 µM in test [8]; 5.47 µM in test [9]; 13.2 µM in test [10]; above 100 µM in test [11]; 28.4 µM in [12]. In addition, the TGI was determined as 30.5 µM in [13]; 30.7 µM in test [15]; 24.8 µM in test [16]; 25.7 µM in test [17]; 30.9 µM in test [18]; 28.5 µM in test [19].
Take `O=c1oc2ccccc2c(O)c1C(c1cnc2ccccc2c1)c1c(O)c2ccccc2oc1=O`: the TGI is above 100 µM in [1]; 58.6 µM in [2]; above 100 µM in test [3]; above 100 µM in test [5]; above 100 µM in test [6]; above 100 µM in test [7]. In addition, the TGI was 69.5 µM in test [8]; above 100 µM in test [9]; above 100 µM in [10]; above 100 µM in test [11]; above 100 µM in [13]; above 100 µM in [15]. Besides, the TGI in [16] was above 100 µM; in test [17] it was above 100 µM; in test [18], 97.7 µM; in test [19] it was 76.6 µM.
Take `CCC/C(Cl)=N/OC(=O)Nc1cc(C(F)(F)F)ccc1OC`: the TGI came to 28.4 µM in test [1]; 6.56 µM in [2]; 30.3 µM in test [3]; 21.4 µM in test [4]; 29.9 µM in [5]; 32.2 µM in test [6]. Besides, the TGI in test [7] is 29.7 µM; in test [8] it was 25 µM; in test [9], 7.34 µM; in test [11], 18.6 µM; in test [12], 32.1 µM; in [13], 27 µM. Also, the TGI in [14] was found to be 28.6 µM; in test [15] it was 29.8 µM; in test [16], 15.6 µM; in test [17], 2.99 µM; in test [18], 6.01 µM; in [19], 27.4 µM.
For the molecule `C/C=C(/C)C(=O)O[C@H]1[C@H]2[C@@H]([C@@H](OC(C)=O)[C@H](C)C(=O)[C@@]34C[C@@H](C)C(=O)[C@]3(/C=C(\C)[C@H]1OC(C)=O)O4)C2(C)C`, the TGI in test [1] was 16 µM; in [2], 7.73 µM; in [3] it was 7.01 µM; in test [4], 5.22 µM; in test [5], 16 µM; in test [6], 12 µM. Besides, the TGI stood at 15.8 µM in [7]; 4.94 µM in test [8]; 8.43 µM in test [10]; 5.5 µM in test [11]; 7.77 µM in test [12]; 9.32 µM in test [13]. In addition, the TGI in test [14] is 5.83 µM; in test [15], 6.54 µM; in test [16] it was 5.74 µM; in [17], 6.29 µM; in test [18] it was 6.46 µM; in test [19], 5.33 µM.
As to `C/C(N)=C/C(=O)c1[nH]c(C(=O)O)cc1C1CCN(Cc2ccccc2)C1=O` (stereo unspecified), the TGI in test [1] was above 100 µM; in test [2], 55 µM; in [3], 55.6 µM; in test [4] it was 39 µM; in [5], 75.2 µM; in [6], 42.8 µM. Moreover, the TGI in [7] was above 100 µM; in test [8], 69.7 µM; in [9] it was 50.2 µM; in test [10] it was 59 µM; in test [11], 85 µM; in [12], above 100 µM. Also, the TGI in [13] was above 100 µM; in test [15], 50.8 µM; in test [16], 74.9 µM; in test [17], 49.2 µM; in [18], 57.9 µM.
Regarding `O=S1(=O)c2ccccc2C(Nc2ccccc2)N1c1ccccc1` (stereo unspecified), the TGI in test [1], in [2], in [3], in test [5], in test [6] and in [7] was above 100 µM each time. Besides, the TGI in [8], in [9], in test [10], in [11], in test [12] and in test [13] was above 100 µM in each case. For the same molecule, the TGI in test [14] was above 100 µM; in test [15], above 100 µM; in test [16] it was 80 µM; in test [17], 67.9 µM; in test [18], above 100 µM; in test [19], above 100 µM.
On to `Cn1c(=O)c2nc3c(=O)n(C)c(=O)n(CC(N)=O)c3nc2n(C)c1=O`, for which the TGI in test [1], in [2], in [3], in test [4], in test [5] and in test [6] was above 100 µM each time. For the same molecule, the TGI in test [7], in test [8], in test [9], in test [10], in [11] and in [12] was above 100 µM in each case. Also, the TGI in test [13], in [14], in test [15], in test [16], in test [17] and in test [19] was above 100 µM in each case.
As to `N#CC(C#N)=C/C=C/c1c(Cl)cccc1Cl`, the TGI in test [1] was 6.49 µM; in test [2], 4.8 µM; in [3], 5.67 µM; in test [4] it was 3.06 µM; in [5], 3.39 µM; in [6], 8.87 µM. Further, the TGI in [7] was 3.68 µM; in test [8], 3.23 µM; in test [9], 3.15 µM; in test [10], 8.56 µM; in test [11], 3.35 µM; in [13], 3.52 µM. Moreover, the TGI in test [14] was 2.96 µM; in test [15], 3.48 µM; in test [16], 6.19 µM; in [17] it was 3.06 µM; in test [18], 9.01 µM; in test [19], 3.9 µM.
Regarding `CC1(C)C2CCC1(C)C(OC(=O)/C=C/C(=O)OC1CC3CCC1(C)C3(C)C)C2` (stereo unspecified), the TGI in test [1], in test [2], in test [3], in test [4], in [5] and in test [6] was above 100 µM in each case. Moreover, the TGI in test [7], in test [8], in test [10], in [11], in test [12] and in test [13] was above 100 µM throughout. For the same molecule, the TGI in test [14] was above 100 µM; in [15], above 100 µM; in [16], above 100 µM; in [17], above 100 µM; in test [18], 45.9 µM; in test [19] it was above 100 µM.
As to `N#Cc1ccc(-c2nc3c(N)nc(-c4ccccc4)nc3o2)cc1`, the TGI in test [1], in test [2], in [3], in test [4], in [5] and in test [6] was above 100 µM each time. Further, the TGI in test [7] is above 100 µM; in test [8], above 100 µM; in test [10], above 100 µM; in [11], above 100 µM; in test [12], above 100 µM; in test [13] it was 46.2 µM. Further, the TGI in test [14] is 22.3 µM; in [15], above 100 µM; in test [16], above 100 µM; in test [17], above 100 µM; in test [18] it was above 100 µM; in [19], above 100 µM.
